Tested on: 695427-040-R-J1-PDC complex spheroids, viability percent T/C
Experiment: Anticancer human tumor 695427-040-R-J1-PDC patient-derived colon adenocarcinoma cell line growth inhibition [GQUAD]
Conditions: for IC50: curve of first compound; for viability, T/C: stronger effect = lower value; active = viability on the fitted dose curve at most 10% of control; inactive = the rest
Method in brief: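 Viability of tumor cells grown as complex spheroids with endothelial and stromal cells, exposed to drug combinations. Top concentration at or near clinical Cmax (else 10 microM), diluted in half-log increments.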

[1] = second compound 0.0316 µM, first compound 0.0316 µM
[2] = second compound 0.0316 µM, first compound 0.1 µM
[3] = second compound 0.0316 µM, first compound 0.316 µM
[4] = second compound 0.0316 µM, first compound 1 µM
[5] = second compound 0.0316 µM, first compound 3.16 µM
[6] = second compound 0.0316 µM, first compound 10 µM
[7] = second compound 0.1 µM, first compound 0.0316 µM
[8] = second compound 0.1 µM, first compound 0.1 µM
[9] = second compound 0.1 µM, first compound 0.316 µM
[10] = second compound 0.1 µM, first compound 1 µM
[11] = second compound 0.1 µM, first compound 3.16 µM
[12] = second compound 0.1 µM, first compound 10 µM
[13] = second compound 0.316 µM, first compound 0.0316 µM
[14] = second compound 0.316 µM, first compound 0.1 µM
[15] = second compound 0.316 µM, first compound 0.316 µM
[16] = second compound 0.316 µM, first compound 1 µM
[17] = second compound 0.316 µM, first compound 3.16 µM
[18] = second compound 0.316 µM, first compound 10 µM
[19] = second compound 1 µM, first compound 0.0316 µM
[20] = second compound 1 µM, first compound 0.1 µM
[21] = second compound 1 µM, first compound 0.316 µM
[22] = second compound 1 µM, first compound 1 µM
[23] = second compound 1 µM, first compound 3.16 µM
[24] = second compound 1 µM, first compound 10 µM
[25] = second compound 3.16 µM, first compound 0.0316 µM
[26] = second compound 3.16 µM, first compound 0.1 µM
[27] = second compound 3.16 µM, first compound 0.316 µM
[28] = second compound 3.16 µM, first compound 1 µM
[29] = second compound 3.16 µM, first compound 3.16 µM
[30] = second compound 3.16 µM, first compound 10 µM
[31] = second compound 10 µM, first compound 0.0316 µM
[32] = second compound 10 µM, first compound 0.1 µM
[33] = second compound 10 µM, first compound 0.316 µM
[34] = second compound 10 µM, first compound 1 µM
[35] = second compound 10 µM, first compound 3.16 µM
[36] = second compound 10 µM, first compound 10 µM
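Note: spheroids exposed to compounds for seven days before readout.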

COc1ncnc(C2CC2)c1-c1ncc2cnn(Cc3ccc(-c4nc(C(F)(F)F)cn4C(C)C)cc3)c2n1 + Cc1cnc(CNC(=O)c2c(=O)c3ccc(N4CCCN(C)CC4)nc3n3c2sc2ccccc23)cn1
> 10 µM: IC50 (second compound 0.0316 µM) | IC50 (second compound 0.1 µM) | IC50 (second compound 0.316 µM) | IC50 (second compound 1 µM)
< 0.0316 µM: IC50 (second compound 3.16 µM) | IC50 (second compound 10 µM)
inactive: viability, T/C [1] 104% | viability, T/C [2] 75.9% | viability, T/C [3] 80.3% | viability, T/C [4] 62.4% | viability, T/C [5] 83.7% | viability, T/C [6] 75.6% | viability, T/C [7] 90.4% | viability, T/C [8] 63.2% | viability, T/C [9] 71.9% | viability, T/C [10] 81.4% | viability, T/C [11] 72.1% | viability, T/C [12] 79.7% | viability, T/C [13] 66.3% | viability, T/C [14] 67.9% | viability, T/C [15] 58.5% | viability, T/C [16] 65.2% | viability, T/C [17] 62.8% | viability, T/C [18] 69.2% | viability, T/C [19] 56.1% | viability, T/C [20] 58.1% | viability, T/C [21] 70% | viability, T/C [22] 64.5% | viability, T/C [23] 68.4% | viability, T/C [24] 73.9% | viability, T/C [25] 34.3% | viability, T/C [26] 37.7% | viability, T/C [27] 42.8% | viability, T/C [28] 43% | viability, T/C [29] 53.2% | viability, T/C [30] 45.8% | viability, T/C [31] 18.6% | viability, T/C [32] 31.1% | viability, T/C [33] 43.1% | viability, T/C [34] 29.9% | viability, T/C [35] 34.6% | viability, T/C [36] 24.1%

Cc1[nH]c2ccccc2c1CCNCc1ccc(/C=C/C(=O)NO)cc1 + Cc1cnc(CNC(=O)c2c(=O)c3ccc(N4CCCN(C)CC4)nc3n3c2sc2ccccc23)cn1
inactive: viability, T/C (second compound 0.0316 µM, first compound 0.000999 µM) 108% | viability, T/C (second compound 0.0316 µM, first compound 0.00316 µM) 89.4% | viability, T/C (second compound 0.0316 µM, first compound 0.00999 µM) 105% | viability, T/C [1] 87.8% | viability, T/C (second compound 0.0316 µM, first compound 0.0999 µM) 86.9% | viability, T/C [3] 80.5% | viability, T/C (second compound 0.1 µM, first compound 0.000999 µM) 90.7% | viability, T/C (second compound 0.1 µM, first compound 0.00316 µM) 84% | viability, T/C (second compound 0.1 µM, first compound 0.00999 µM) 84.3% | viability, T/C [7] 80.5% | viability, T/C (second compound 0.1 µM, first compound 0.0999 µM) 94.8% | viability, T/C [9] 65.5% | viability, T/C (second compound 0.316 µM, first compound 0.000999 µM) 74.9% | viability, T/C (second compound 0.316 µM, first compound 0.00316 µM) 80.8% | viability, T/C (second compound 0.316 µM, first compound 0.00999 µM) 85.5% | viability, T/C [13] 85% | viability, T/C (second compound 0.316 µM, first compound 0.0999 µM) 90.4% | viability, T/C [15] 58.1% | viability, T/C (second compound 1 µM, first compound 0.000999 µM) 50.9% | viability, T/C (second compound 1 µM, first compound 0.00316 µM) 73.3% | viability, T/C (second compound 1 µM, first compound 0.00999 µM) 69.2% | viability, T/C [19] 66.6% | viability, T/C (second compound 1 µM, first compound 0.0999 µM) 67.5% | viability, T/C [21] 39% | viability, T/C (second compound 3.16 µM, first compound 0.000999 µM) 41.6% | viability, T/C (second compound 3.16 µM, first compound 0.00316 µM) 51.4% | viability, T/C (second compound 3.16 µM, first compound 0.00999 µM) 52.9% | viability, T/C [25] 46.1% | viability, T/C (second compound 3.16 µM, first compound 0.0999 µM) 43.1% | viability, T/C [27] 9.89% | viability, T/C (second compound 10 µM, first compound 0.000999 µM) 21.6% | viability, T/C (second compound 10 µM, first compound 0.00316 µM) 31.5% | viability, T/C (second compound 10 µM, first compound 0.00999 µM) 32% | viability, T/C [31] 31.1% | viability, T/C (second compound 10 µM, first compound 0.0999 µM) 14.5%
< 0.000999 µM: IC50 (second compound 3.16 µM) | IC50 (second compound 10 µM)
active: viability, T/C [33] 0.3%
> 0.316 µM: IC50 (second compound 0.0316 µM) | IC50 (second compound 0.1 µM) | IC50 (second compound 0.316 µM) | IC50 (second compound 1 µM)

O=C(NO)c1cnc(N2CCN(S(=O)(=O)c3ccc4ccccc4c3)CC2)nc1 + Cc1cnc(CNC(=O)c2c(=O)c3ccc(N4CCCN(C)CC4)nc3n3c2sc2ccccc23)cn1
0.445 µM: IC50 (second compound 0.1 µM)
0.418 µM: IC50 (second compound 0.0316 µM)
0.281 µM: IC50 (second compound 0.316 µM)
0.172 µM: IC50 (second compound 1 µM)
active: viability, T/C [4] 6.15% | viability, T/C [5] 0.22% | viability, T/C [6] 0.22% | viability, T/C [10] 7.35% | viability, T/C [11] 0.34% | viability, T/C [12] 0.28% | viability, T/C [16] 6.3% | viability, T/C [17] 0.18% | viability, T/C [18] 0.19% | viability, T/C [22] 0.29% | viability, T/C [23] 0.1% | viability, T/C [24] 0.17% | viability, T/C [28] 0.14% | viability, T/C [29] 0.11% | viability, T/C [30] 0.12% | viability, T/C [33] 0.3% | viability, T/C [34] 0.15% | viability, T/C [35] 0.17% | viability, T/C [36] 0.18%
< 0.0316 µM: IC50 (second compound 3.16 µM) | IC50 (second compound 10 µM)
inactive: viability, T/C [1] 91.1% | viability, T/C [2] 78.5% | viability, T/C [3] 64.4% | viability, T/C [7] 87.2% | viability, T/C [8] 65.5% | viability, T/C [9] 68.3% | viability, T/C [13] 85.3% | viability, T/C [14] 70.1% | viability, T/C [15] 49.8% | viability, T/C [19] 56.4% | viability, T/C [20] 58.3% | viability, T/C [21] 41.7% | viability, T/C [25] 48.4% | viability, T/C [26] 45.6% | viability, T/C [27] 23.1% | viability, T/C [31] 24.2% | viability, T/C [32] 13.8%
